This is an account of results in ChEMBL document CHEMBL4000220, “Optimization of spirocyclic proline tryptophan hydroxylase-1 inhibitors” (Bioorg Med Chem Lett, 2017).

Assay [1] concerns the target T1, Tryptophan 5-hydroxylase 1 (Homo sapiens, UniProt P17752).
T1 sequence (P17752 whole entry): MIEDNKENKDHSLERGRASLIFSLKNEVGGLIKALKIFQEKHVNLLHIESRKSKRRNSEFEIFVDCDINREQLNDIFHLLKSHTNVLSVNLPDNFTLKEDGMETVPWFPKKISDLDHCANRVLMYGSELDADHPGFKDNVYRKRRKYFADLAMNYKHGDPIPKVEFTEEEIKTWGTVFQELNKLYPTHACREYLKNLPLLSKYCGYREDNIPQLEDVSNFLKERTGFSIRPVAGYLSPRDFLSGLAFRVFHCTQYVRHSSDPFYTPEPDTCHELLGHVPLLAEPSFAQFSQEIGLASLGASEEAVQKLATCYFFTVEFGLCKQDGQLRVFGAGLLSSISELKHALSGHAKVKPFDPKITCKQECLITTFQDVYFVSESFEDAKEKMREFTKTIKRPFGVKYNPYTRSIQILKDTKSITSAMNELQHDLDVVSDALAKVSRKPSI
Description: Inhibition of TPH1 (unknown origin)

For the next assay, the system named is Mus musculus. Description: In vivo inhibition of TPH1 in mouse assessed as reduction in 5-HT level in intestinal mucosa at 50 mg/kg, po administered daily as single dose relative to control. Format: functional.

The structures appear in SMILES notation. The source made the active and inactive calls. No cut-off for these calls is given here.

Broadly, the IC50 is the concentration needed to halve the response being measured. Read a low IC50 as inhibition by little substance. Regarding `Nc1nc(O[C@H](c2ccc(Cl)cc2-c2cccnc2)C(F)(F)F)cc(N2CCC3(CC2)CN[C@H](C(=O)O)C3)n1`, the concentration for half-maximal inhibition (IC50) in assay [1] turned out to be 65 nM. Broadly, the inhibition in vivo is how much of the control response was suppressed. In the case of `CCOC(=O)[C@@H]1CC2(CCN(c3cc(O[C@H](c4ccc(-c5ccc(Cl)c(Cl)c5)cc4-n4ccc(C)n4)C(F)(F)F)nc(N)n3)CC2)CN1`, the inhibition in vivo at 50 mg/kg in the assay on Mus musculus came to 60%. Consider `CCOC(=O)[C@@H]1CC2(CCN(c3cc(O[C@H](c4ccc(-c5ccc6nc(SC)ccc6c5)cc4)C(F)(F)F)nc(N)n3)CC2)CN1`, for which, in the assay on Mus musculus, the inhibition result is “inactive”. Molecule `NC(=O)c1cccc(-c2cc(Cl)ccc2[C@@H](Oc2cc(N3CCC4(CC3)CN[C@H](C(=O)O)C4)nc(N)n2)C(F)(F)F)c1` yielded a half-inhibitory concentration (IC50) in assay [1] of 40 nM. With `Cc1cc(-c2cc(Cl)ccc2[C@@H](Oc2cc(N3CCC4(CC3)CN[C@H](C(=O)O)C4)nc(N)n2)C(F)(F)F)ccc1Cl`, the midpoint of inhibition in assay [1], the IC50, lay at 62 nM. `CCOC(=O)[C@@H]1CC2(CCN(c3cc(O[C@H](c4ccc(-c5ccc6c(c5)CCC(=O)N6)cc4)C(F)(F)F)nc(N)n3)CC2)CN1`: the inhibition entry in the assay on Mus musculus was “inactive”. Consider `CCOC(=O)[C@@H]1CC2(CCN(c3cc(O[C@H](c4ccc(-c5ccc6c(C)n(C)nc6c5)cc4)C(F)(F)F)nc(N)n3)CC2)CN1`, for which, in the assay on Mus musculus, the inhibition entry is “inactive”. As for `CCOC(=O)[C@@H]1CC2(CCN(c3cc(O[C@H](c4ccc(-c5ccc6ncc(F)cc6c5)cc4)C(F)(F)F)nc(N)n3)CC2)CN1`, the inhibition entry with Mus musculus is “inactive”. For `CS(=O)(=O)Nc1cccc(-c2cc(Cl)ccc2[C@@H](Oc2cc(N3CCC4(CC3)CN[C@H](C(=O)O)C4)nc(N)n2)C(F)(F)F)c1`, in assay [1], the IC50 is 51 nM. For the molecule `Nc1nc(O[C@H](c2ccc(Cl)cc2-c2cccc(N3CCCC3=O)c2)C(F)(F)F)cc(N2CCC3(CC2)CN[C@H](C(=O)O)C3)n1`, the half-maximal inhibitory concentration (IC50) in assay [1] was found to be 77 nM.

In assay [1], `CCOc1ccc(-c2cc(Cl)ccc2[C@@H](Oc2cc(N3CCC4(CC3)CN[C@H](C(=O)O)C4)nc(N)n2)C(F)(F)F)cc1Cl` returned an IC50 of 207 nM. Compared with the last molecule, the IC50 is about 2.7-fold higher. In the case of `CS(=O)(=O)c1ccc(-c2cc(Cl)ccc2[C@@H](Oc2cc(N3CCC4(CC3)CN[C@H](C(=O)O)C4)nc(N)n2)C(F)(F)F)cc1`, the midpoint of inhibition in assay [1], the IC50, lay at 885 nM. Against the preceding molecule, the IC50 is about 4.3-fold higher. In assay [1], `CN(C)S(=O)(=O)c1cccc(-c2cc(Cl)ccc2[C@@H](Oc2cc(N3CCC4(CC3)CN[C@H](C(=O)O)C4)nc(N)n2)C(F)(F)F)c1` registered an IC50 of 53 nM.

`Cc1cccc(-c2cc(Cl)ccc2[C@@H](Oc2cc(N3CCC4(CC3)CN[C@H](C(=O)O)C4)nc(N)n2)C(F)(F)F)n1` registered a half-maximal inhibitory concentration (IC50) in assay [1] of 73 nM. Take `Nc1nc(O[C@H](c2ccc(Cl)cc2-c2cc(F)cc(Cl)c2)C(F)(F)F)cc(N2CCC3(CC2)CN[C@H](C(=O)O)C3)n1`: in assay [1], half-maximal inhibition (IC50) was put at 35 nM. Turning to `Nc1nc(O[C@H](c2ccc(Cl)cc2-c2ccc(Cl)cc2)C(F)(F)F)cc(N2CCC3(CC2)CN[C@H](C(=O)O)C3)n1`, the concentration for half-maximal inhibition (IC50) in assay [1] worked out at 53 nM. As to `Cc1ccn(-c2cc(-c3ccc(Cl)c(Cl)c3)ccc2[C@@H](Oc2cc(N3CCC4(CC3)CN[C@H](C(=O)O)C4)nc(N)n2)C(F)(F)F)n1`, the IC50 in assay [1] was found to be 22 nM. This IC50 is about 2.4-fold lower than that of the molecule before. On the same count and under the same terms, to `COc1ccc(-c2ccc([C@@H](Oc3cc(N4CCC5(CC4)CN[C@H](C(=O)O)C5)nc(N)n3)C(F)(F)F)c(-n3ccc(C)n3)c2)cc1` belongs 23 nM; to `Nc1nc(O[C@H](c2ccc(Cl)cc2-c2ccc(F)c(F)c2)C(F)(F)F)cc(N2CCC3(CC2)CN[C@H](C(=O)O)C3)n1`, 35 nM.

In turn, `Nc1nc(O[C@H](c2ccc(Cl)cc2-c2ccc(S(N)(=O)=O)cc2)C(F)(F)F)cc(N2CCC3(CC2)CN[C@H](C(=O)O)C3)n1` came in with an IC50 in assay [1] of 1130 nM. Molecule `Nc1nc(O[C@H](c2ccc(Cl)cc2-c2cccc(Cl)c2)C(F)(F)F)cc(N2CCC3(CC2)CN[C@H](C(=O)O)C3)n1` had an IC50 in assay [1] of 30 nM. Consider `N#Cc1cccc(-c2cc(Cl)ccc2[C@@H](Oc2cc(N3CCC4(CC3)CN[C@H](C(=O)O)C4)nc(N)n2)C(F)(F)F)c1`, for which half-maximal inhibition in assay [1] (IC50) was put at 30 nM. In other words, the double-digit nanomolar range. Take `Cc1ccn(-c2cc(-c3ccc(C)c(C)c3)ccc2[C@@H](Oc2cc(N3CCC4(CC3)CN[C@H](C(=O)O)C4)nc(N)n2)C(F)(F)F)n1`: the IC50 in assay [1] is 20 nM. This IC50 is about 1.5-fold lower than that of the molecule before.
